Where a SMILES comes first, the peptide text is derived from it. Bridges are numbered along the chain shown (N, C = ends). [ ]: non-standard residue; d: D form.

The values below come from PMC4660582, “Cyclic thrombospondin-1 mimetics: grafting of a thrombospondin sequence into circular disulfide-rich frameworks to inhibit endothelial cell migration” (Bioscience Reports, 2015).

Data set [1] can be described thus: Stability assay in human serum. The format is in vitro ADME. The settings on record: initial 300 μM; for remaining at 24 h, 300 μM: male, human, human serum, over a 24-h period, read-out: peptide remained in human serum. As for the experimental part:
All peptides were tested on human serum from male AB plasma (Sigma–Aldrich) at an initial concentration of 300 μM. Peptide incubation time points were 0, 2, 4, 8, 16 and 24 h. Samples were prepared according to previously described methods. Briefly, 90 μL of supernatant was taken at each time point and chromatographed on a 0.3 mL/min Phenomenex column using a linear 1%/min gradient of 0–50% solvent B on an analytical reverse-phase HPLC (Agilent). The elution times for all peptides were determined by the serum control at 0 h. The stability of each peptide for each time point was calculated as the height of the serum-treated peptide peak at 215 nm as percentage of the height of the 0-h serum-treated control. Experiments were done in triplicate.

For a further data set, the system named is Human red blood cells. Briefly: Hemolytic assay. It is filed as cell-based. To be noted: peptides 0.01–50 μM; melittin positive control from 20 μM. As for the experimental part:
Human red blood cells were used to measure the hemolysis of all peptides, with melittin used as a positive control. Peptides concentrations were 50 μM, 25 μM, 10 μM, 5 μM, 1 μM, 0.5 μM, 0.1 μM and 0.01 μM. Melittin was tested at eight concentrations, with two-fold dilution from a concentration of 20 μM. Sample absorbance was measured at 415 nm using a BioTek PowerWave XS instrument, as described previously. Experiments were done in triplicate.

The test system of data set [2] is HT-29 (colon cancer cells). Briefly: Cell proliferation assay (MTT, 72 h). It is filed as cell-based. To be noted: 72-h period. Here is the method: (§1) All cells were maintained using the media conditions described above, and passages 2–10 were used for all cell lines. Cell numbers of 2.5×10^3 cells/well (100 μL) were used for both HUVECs and HMVECs, and 1.5×10^3 cells/well (100 μL) were used for other cell lines in this assay. All cells were allowed to attach for 24 h after plating. Cells were treated with fresh media the next day, before the addition of peptides and then incubated for 72 h. Similar peptide concentrations to those mentioned above (in the cell cytotoxicity section) were used. 0.1% (v/v) Triton X-100 (10 μL) was used as a positive control. After 72 h of incubation, MTT and DMSO were added and analysed using the same method as described above.

In data set [3] the test system is PC3 cells (prostate cancer cells). As to the kind of experiment: Cell proliferation assay (MTT, 72 h). The format is cell-based. To be noted: PC-3; 72-h period. As for the experimental part:
as §1

The test system of data set [4] is matriptase over-expressed PC-3 cell line. Also noted: method as in PMID 24696092. To be noted: cited from earlier work.
For another data set, the system named is HMVECs. Also noted: method as in PMID 15716381. To be noted: at 5 nM; cited from earlier work.
The test system of another data set is HUVECs. Details: method as in PMID 15716381. The settings on record: at 16 nM; cited from earlier work.

For the compound `CC[C@@H](C)[C@H]1NC(=O)[C@H](C(C)C)NC(=O)CNC(=O)[C@@H]2CSSC[C@@H]3NC(=O)[C@H](CC(=O)O)NC(=O)[C@H](CO)NC(=O)[C@H](CC(=O)O)NC(=O)[C@H](CCCNC(=N)N)NC(=O)[C@H](CCCNC(=N)N)NC(=O)[C@@H]4CSSC[C@H](NC(=O)[C@H]([C@@H](C)CC)NC(=O)[C@H](CSSC[C@H](NC(=O)[C@H](CCCNC(=N)N)NC(=O)[C@H]([C@@H](C)CC)NC(=O)[C@H](CCCNC(=N)N)NC(=O)[C@H]([C@@H](C)O)NC1=O)C(=O)N1CCC[C@H]1C(=O)N[C@@H](CCCCN)C(=O)N[C@@H]([C@@H](C)CC)C(=O)N[C@@H](CC(C)C)C(=O)N[C@@H](CCCCN)C(=O)N[C@@H](CCCCN)C(=O)N4)NC(=O)[C@H](C)NC(=O)CNC(=O)[C@@H]1CCCN1C3=O)C(=O)N[C@@H](CCCNC(=N)N)C(=O)NCC(=O)N[C@@H](CC(N)=O)C(=O)NCC(=O)N[C@@H](Cc1ccc(O)cc1)C(=O)N2` [MCo-TSP-1] (cyclo(ACICRGNGYCGV[dI]TRIRCPKILKKCRRDSDCPG); disulfide 2-18, 4-25, 10-31), the remaining at 24 h, 300 μM in data set [1] was over 50%.
Same read-out and setting: next, `CC[C@@H](C)[C@H]1NC(=O)[C@H](C(C)C)NC(=O)CNC(=O)[C@@H]2CSSC[C@H](NC(=O)[C@H](CCCNC(=N)N)NC(=O)[C@H]([C@@H](C)CC)NC(=O)[C@H](CCCNC(=N)N)NC(=O)[C@H]([C@@H](C)O)NC1=O)C(=O)N[C@@H]([C@@H](C)O)C(=O)N[C@@H](CCCCN)C(=O)N[C@@H](CO)C(=O)N[C@@H]([C@@H](C)CC)C(=O)N1CCC[C@H]1C(=O)N1CCC[C@H]1C(=O)N[C@@H]([C@@H](C)CC)C(=O)N2` [SFTI-TSP-1, CTKSIPPICGViTRIR]: over 50%.
For the compound `CC[C@@H](C)[C@@H](NC(=O)[C@@H](NC(=O)CN)C(C)C)C(=O)N[C@H](C(=O)N[C@@H](CCCNC(=N)N)C(=O)N[C@H](C(=O)N[C@@H](CCCNC(=N)N)C(=O)O)[C@@H](C)CC)[C@@H](C)O` [linear TSP-1 heptapeptide, GViTRIR] (H-GV[dI]TRIR-OH), the “time within which degraded in human serum” value in data set [1] is on record as at most 24 h.
As to `CC[C@H](C)[C@H](NC(=O)CN)C(=O)NCC(=O)N[C@@H](C)C(=O)N[C@H](C(=O)N[C@@H](CC(C)C)C(=O)N[C@@H](CCCCN)C(=O)N[C@H](C(=O)N[C@@H](CC(C)C)C(=O)N[C@H](C(=O)N[C@H](C(=O)NCC(=O)N[C@@H](CC(C)C)C(=O)N1CCC[C@H]1C(=O)N[C@@H](C)C(=O)N[C@@H](CC(C)C)C(=O)N[C@H](C(=O)N[C@@H](CO)C(=O)N[C@@H](Cc1c[nH]c2ccccc12)C(=O)N[C@H](C(=O)N[C@@H](CCCCN)C(=O)N[C@@H](CCCNC(=N)N)C(=O)N[C@@H](CCCCN)C(=O)N[C@@H](CCCNC(=N)N)C(=O)N[C@@H](CCC(N)=O)C(=O)N[C@@H](CCC(N)=O)C(N)=O)[C@@H](C)CC)[C@@H](C)CC)[C@@H](C)O)[C@@H](C)O)C(C)C)C(C)C` [melittin], in the data set with Human red blood cells, the “haemolysis of human red blood cells” value is given as “highly haemolytic”.
For the compound “Momordica cochinchinensis trypsin inhibitor-II [MCoTI-II]”, the anti-proliferative effect entry in data set [2] and in data set [3] was “minor anti-proliferative effects” in each case. The “effect on invasive cell migration” value in data set [4] is on record as “inhibited invasive cell migration”.
With sunflower trypsin inhibitor-1 [SFTI-1], the anti-proliferative effect result in data set [2] and in data set [3] was “minor anti-proliferative effects” in each case.
On to thrombospondin-1 type-1 repeats [TSR], for which the “inhibition on HMVECs (migration)” value in the data set on HMVECs is on record as 35%. Also, the “inhibition on HUVECs (migration)” value with HUVECs is 60%.
